The text below walks through data of ChEMBL document CHEMBL3507680, “University of Dundee, Gates Library screen for HepG2 cell viability”.

This series in a line: Human HepG2 cell viability assay in 384 well format. Type of series: toxicity, cell-based. Also noted: dose 125 nL, time 70.5 hour; concentration not given beside the values. The conditions noted are these: HepG2 cells, read-out: Inhibition.

Regarding `CC(C1CCN(C(=O)c2coc(CN3CCOCC3)c2)CC1)N(C)C` (stereo not drawn), the cytotoxicity at 70.5 h is -1.57%.
With `CC(C)c1cc(NC2CCCN(C(=O)c3cccs3)C2)ncn1` (stereo not drawn) the figure was 2.55%; with `COCCN1C(=O)[C@H]2CC[C@@H]1CN(c1nccc(C3CCCC3)n1)C2`, -4.32%; with `O=S(=O)(NCc1ccccc1)N1CCN(c2ncccn2)CC1`, -18.4%.
In the case of `Cn1cnnc1CC1CCN(Cc2nn(C)c3cccc(Cl)c23)CC1` it was 39.8%; in that of `COC[C@]1(O)CCN(C(=O)c2ccc(CN(C)C)o2)CC1(C)C`, -12.5%; in that of `CC(Oc1ccc(F)cc1F)C(=O)N1CCC2(CC1)CC(=O)N(C)C2` (stereo not drawn), 27.3%.
As for `O=C(NCc1cn2cccnc2n1)C1CC(=O)N(Cc2cccnc2)C1` (stereo not drawn), the cytotoxicity at 70.5 h is 2.43%.
In the case of `O=C(Cc1ccccn1)N1CCC2(CC1)[C@H](O)C[C@@H]2O` it was -12.4%; in that of `CSc1ncc(CN2CC(Oc3c(C)cccc3C)C2)cn1`, -2.81%.
With `CC(C)c1cc(=O)[nH]c(-c2ccccc2CN2CCCCCC2)n1` the figure was -13.2%; with `CC(C)c1ncc(CN2C[C@@H](CN3CCCN(C)CC3)[C@@H](CO)C2)cn1`, -3.2%; with `Cc1ccnn1CC(=O)N1CCN(C2CCc3ccccc3C2)CC1` (stereo not drawn), 3.04%.
`Cc1nnc(CN2CCC3(CCC(=O)N([C@H]4CC[C@H](O)CC4)C3)CC2)o1`: the cytotoxicity at 70.5 h is -8.57%.
With `CSc1ccc(CN(CCO)C(=O)CCc2cccc(F)c2)cc1` the figure was -15.9%.
In the case of `Cc1cc(F)cc(CN2CCCn3nc(CNS(C)(=O)=O)cc3C2)c1` it was 0.898%; in that of `O=C1CCOCCN1Cc1ccc(C(F)(F)F)c(F)c1`, 14.1%; in that of `COc1ccc(Cl)cc1S(=O)(=O)N(C)CC(=O)Nc1cccnc1`, -5.02%.
In the case of `CC(C)=CCN1CCN(Cc2nccn2C)[C@H]2CS(=O)(=O)C[C@H]21` it was -7.09%; in that of `COCC1CCN(C(C(=O)O)c2c(F)cccc2OC(C)C)CC1` (stereo not drawn), -6.42%.
For the molecule `CN(Cc1cc[nH]n1)C(=O)c1cn(Cc2ccccc2Cl)nn1`, the cytotoxicity at 70.5 h was -9.32%.
In the case of `Cc1cc(C(=O)N2CCC(C)CC2)ccc1NS(C)(=O)=O` it was -4.78%.
With `Cc1cnccc1NCCn1ccnc1C1CCOC1` (stereo not drawn) the figure was -3.31%; with `COc1cc(C)c(C)cc1S(=O)(=O)N(C)CC(=O)Nc1ccon1`, -15.2%.
In the case of `CCn1cnnc1CCNC(=O)C1COc2ccc(OC)cc2C1` (stereo not drawn) it was -11.5%; in that of `COCCNC(=O)c1cc(S(=O)(=O)N2CCCC2)cs1`, 14.3%.
In the case of `COc1nccc(N2CC[C@H](CO)[C@@H](O)C2)c1C#N`, the cytotoxicity at 70.5 h was -6.06%.
With `COc1ccc(Cl)cc1S(=O)(=O)N(C)CC(=O)Nc1ccon1` the figure was -12%; with `O=S(=O)(Cc1c(F)cccc1Cl)NCCCN1CCCCCC1`, -1.18%; with `Cn1c(C(=O)N2CCc3[nH]cnc3C2C(=O)O)ccc1-c1ccccc1` (stereo not drawn), -2.27%.
With `NC(=O)C1CCN(C(=O)c2cc(S(=O)(=O)N3CCCCC3)cs2)CC1`, the cytotoxicity at 70.5 h amounted to 14.2%.
As for `CC1(C)CN(C(=O)c2ncc(F)cc2F)CCC1(O)CN1CCOCC1` (stereo not drawn), the cytotoxicity at 70.5 h was -0.112%.
With `O=C(NCCc1ccncc1)c1cccc(S(=O)(=O)N[C@@H]2CCNC2)c1` the figure was 19%; with `Cn1ccnc1CN1CCC(c2nnc(Cn3cccn3)n2C)CC1`, 24.7%.
In the case of `CC1(C)CN(Cc2c[nH]c(CC3CCCC3)n2)CC[C@]1(C)O` it was -5.46%; in that of `CCC(CO)n1cnc2scc(C)c2c1=O` (stereo not drawn), -22.7%; in that of `Cc1nc2c(c(N3CCN(Cc4ccco4)CC3)n1)CCNCC2`, -4.87%.
With `OCc1ccc(-c2nccn2CCC2=CCCCC2)o1` the figure was -9.58%; with `CN1CCN(CCCNS(=O)(=O)Cc2ccccc2F)CC1`, -0.252%.
In the case of `CCC(C(=O)NCc1ccncc1)N(c1ccc(F)cc1)S(C)(=O)=O` (stereo not drawn), the cytotoxicity at 70.5 h was -0.482%.
Turning to `COc1ccc(Cl)cc1S(=O)(=O)N(C)CC(=O)Nc1ccccc1`, the cytotoxicity at 70.5 h was -9.85%.
With `COc1cc(N2CCOC(c3ccc(F)cc3)C2)ncn1` (stereo not drawn) the figure was -6.22%; with `COCCn1ccnc1C1CCCN(c2ncnc3c2CCC3)C1` (stereo not drawn), -0.0473%.
In the case of `CC(C)(NC(=O)C1CCN(C2CCCCC2)CC1)c1nnc(N)s1` it was 1.76%; in that of `CCc1ccc(CN2CCNC(C(=O)N3CCN(C)CC3)C2)o1` (stereo not drawn), -3.44%.
In the case of `CCc1ccc(CN2CCC(CNS(=O)(=O)C3CC3)C2)nc1` (stereo not drawn) it was -2.29%.
Regarding `CC(Nc1ncnc2c1CCNC2)c1ccc(C(C)(C)C)cc1` (stereo not drawn), the cytotoxicity at 70.5 h turned out to be 2.81%.
With `Cc1cc(CN(C)c2nc(-c3ccccn3)nc3c2CCNCC3)n[nH]1` the figure was -11.1%; with `CC(C)c1cc(N(C)Cc2cc(C3CC3)on2)n2nccc2n1`, -8.41%; with `CCNc1ccnc(N2Cc3cnn(Cc4ccc(F)cc4)c3C2)n1`, -4%.
`Cc1ccc(-c2cn[nH]c2C2CCCN(c3ccnc(C)n3)C2)cc1` (stereo not drawn): the cytotoxicity at 70.5 h is -1.31%.
As to `CCCOC(=O)N1CCC(c2nnc(Cn3cccn3)n2C2CC2)CC1`, the cytotoxicity at 70.5 h is 4.42%.
With `CCN1CCN(C(=O)c2cccc(CN3CCOCC3)c2)CC1`, the cytotoxicity at 70.5 h is -5.52%.
As to `CCC[C@@H]1CN(Cc2cc(OC)c3c(c2)OCO3)C[C@H]1C(=O)O`, the cytotoxicity at 70.5 h is -2.82%.
Consider `CCN(CC1CCCN(CCc2cccc(OC)c2)C1)C(=O)CCSC` (stereo not drawn), for which the cytotoxicity at 70.5 h is -6.12%.
With `Fc1ccccc1CN1CCCN(c2ccc3cc[nH]c3n2)CC1` the figure was -4.59%.
In the case of `CC1CCN(S(=O)(=O)c2ccc(C(=O)N3CCSCC3)cc2)CC1` it was -13%; in that of `CC1CCCN(Cc2ccc(C(N)=O)cc2)C1` (stereo not drawn), 0.459%.
In the case of `COCC(=O)N1CCCC(C(=O)N(C)CCCc2cnn(C)c2)C1` (stereo not drawn) it was 1%; in that of `Cc1cc(-c2ccncc2)ccc1OCC(N)=O`, -5%; in that of `COC(=O)Cn1c(C)cc(=O)c2cc(F)ccc21`, -4.13%.
Turning to `O=C(c1cccnc1N1CCN(Cc2ccoc2)CC1)N1CCCCC1`, the cytotoxicity at 70.5 h was -0.284%.
In the case of `CCCn1ccnc1CN1C[C@@H](CN2CCCCC2)[C@@H](CO)C1` it was -2.74%; in that of `CCSCC(C)NCc1nc(-c2cccnc2)no1` (stereo not drawn), 19.3%; in that of `CC(CCn1cccn1)NCc1n[nH]c2c1CCCCC2` (stereo not drawn), 22.7%.
In the case of `Cc1ccc(C)c(NC(=O)c2coc(C)n2)c1` it was -6.52%.
Consider `Cc1cncc(C(=O)N2CCCC(O)(CN3CCCC3)C2)c1` (stereo not drawn), for which the cytotoxicity at 70.5 h is -19.8%.
With `O=C(CCS(=O)(=O)c1ccccc1)NC1CCOC2(CCOCC2)C1` (stereo not drawn) the figure was -8.45%; with `CN(C)C(=O)c1ccc(C2CCCN2C(=O)CCC2=NNC(=O)CC2)s1` (stereo not drawn), -14.5%; with `O=c1[nH]c(-c2ccncc2)nc2c1CCN(S(=O)(=O)N1CCCC1)C2`, -13.7%.
In the case of `CCCc1cc(NCCC2CCCOC2)n2nccc2n1` (stereo not drawn) it was 14.3%; in that of `COCCC1(CO)CCCN(C(=O)c2cccnc2OC)C1` (stereo not drawn), -5.91%; in that of `Cc1c(C(=O)N(C)c2ccccc2)cccc1N(C)S(C)(=O)=O`, -7.07%.
With `CC(C)[C@@H]1CN(CCCOc2ccc(F)cc2)C[C@H]1NS(C)(=O)=O` the figure was -8.14%.
Regarding `O=C(c1cc(-c2cn[nH]c2)nc2cc(F)ccc12)N1CCS(=O)(=O)CC1`, the cytotoxicity at 70.5 h is -13.7%.
With `Cc1cc(C(F)(F)F)cc(=O)n1Cc1nc(C(C)C)no1` the figure was -14.9%; with `Cc1cccc(C)c1NC(=O)c1cccc(N(C)S(C)(=O)=O)c1C`, -14.1%.
With `CC(=O)Nn1ccc2c(nnc3c(-c4ccc(F)cc4)cnn32)c1=O` the figure was -20.1%; with `CSCCN1CCC(NC(=O)OC(C)(C)C)CC1`, -6.72%; with `CC1CCCN(CCCNC(=O)c2ccc(N(C)S(C)(=O)=O)cc2Cl)C1` (stereo not drawn), -2.33%.
Turning to `Cc1ccccc1CCC(=O)N1CCc2ncnc(NCCO)c2CC1`, the cytotoxicity at 70.5 h is -0.133%.
With `O=C(NCc1nc(-c2ncccn2)no1)c1ccc(C2CCCO2)s1` (stereo not drawn) the figure was 11.9%; with `O=C(O)CCn1ccc2c(nnc3c(-c4ccc(F)cc4)cnn32)c1=O`, -24.9%; with `O=C(c1cc(Cn2ccc3ccccc32)[nH]n1)N1CCC[C@H]1CO`, -0.0597%.
With `O=C(Cc1cnccn1)N1C[C@H]2CC[C@@H]1CN(Cc1cscn1)C2` the figure was -12.8%; with `O=C1COc2cc(C(=O)NS(=O)(=O)c3ccc(F)c(F)c3)ccc2N1`, 10.9%; with `Cc1nc2ccnn2c(C)c1CCC(=O)N1CCN(CCO)CC1`, -9.84%.
In the case of `O=C1COc2cc(C(=O)NS(=O)(=O)c3cc(Cl)ccc3Cl)ccc2N1` it was -8.05%; in that of `O=C1COc2cc(C(=O)NS(=O)(=O)c3ccc(F)cc3F)ccc2N1`, -13.6%; in that of `Cc1cnc2c(S(=O)(=O)NCC3CCOC3)cccc2c1` (stereo not drawn), -10.2%.
In the case of `CN(C)c1cc(C(=O)N2CCCC2c2cnn(C)c2)ccn1` (stereo not drawn), the cytotoxicity at 70.5 h stood at 4.19%.
For `CCCN(CC)c1ccc(C(=O)N2CCCC2c2cnn(C)c2)cn1` (stereo not drawn), the cytotoxicity at 70.5 h is -5.94%.
With `CN(C)c1ccc(C(=O)N2CCCC2c2cnn(C)c2)cn1` (stereo not drawn) the figure was -2.8%; with `CCOc1ccc(C(=O)N2CCCC2c2cnn(C)c2)cn1` (stereo not drawn), -5.51%; with `CCc1ncc2c(n1)CN(CC(=O)Nc1ccncc1)CC2`, -3.06%.
With `Cc1ncc(C(=O)NCCNC(=O)c2ccccc2)s1` the figure was -6.97%.
In the case of `CC(C)(C)c1ncc(C(=O)NCCNc2ncccn2)s1` it was -4.56%; in that of `CCOc1ccc(CNCC(O)c2ccccc2)cc1Cl` (stereo not drawn), -4.88%.
